test system: monocytes (phagocytosis of anti-D opsonized RBCs); assay: Monocyte monolayer assay (MMA), phagocytosis of anti-D opsonized RBCs; format: cell-based; details: Monocyte; percent inhibition of phagocytosis of anti-D opsonized RBCs by monocytes; compound at 5 micromolar
Procedure: Monocyte monolayer assay. The monocyte monolayer assay (MMA) was performed as previously described (Rampersad, G. C.; Suck, G; Sakac, D; Fahim, S; Foo, A; Denomme, G. A.; Langler, R. F.; Branch, D. R. Transfusion 2005, 45, 384; Foo, A. H.; Fletcher, S. P.; Langler, R. F.; Porter, C. H.; Branch, D. R. Transfusion 2007, 47, 290; Branch, D. R.; Gallagher, M. T.; Mison, A. P.; Sy Siok Hian, A. L.; Petz, L. D. Br. J. Haematol. 1984, 56, 19; Gallagher, M. T.; Branch, D. R.; Mison, A.; Petz, L. D. Exp. Hematol. 1983, 11, 82) in the above 4 references with slight modification. Briefly, peripheral blood mononuclear cells (PBMC) containing monocytes were isolated by ficoll-paque density gradient centrifugation and incubated overnight at 37° C. under 5% CO2 atmosphere. PBMCs were then layered onto chamber slides (Labtek, Thermo Scienctific) and incubated at 37° C., 5% CO2 for 1 hr to allow the monocytes to adhere. Following an aspiration of non-adherent cells, compounds were added at various concentrations to the adhered cells and further incubated for an additional hour. The compounds were aspirated and the monocytes treated with anti-D opsonized RBCs at the aforementioned incubation conditions for an additional 2 hrs. The slides were analyzed under phase microscopy for phagocytosis. A minimum of 100 monocytes were counted per sample and the number of observed RBCs that were phagocytosed were counted and normalized to a positive control to generate a phagocytosis index. Percent inhibition of phagocytosis was calculated as the percentage of control phagocytosis (phagocytosis of opsonized RBCs with compound diluent only).

SMILES | inhibition at 5 µM [%]
Cc1cc(OCc2cc(C)nn2-c2ccccc2)n(CCN)n1 [Compound 47, 2-(3-Methyl-5-((3-methyl-1-phenyl-1H-pyrazol-5-yl)methoxy)-1H-pyrazol-1-yl)ethanamine] | 5 to 33
Cc1cc(OCc2cc(C)nn2-c2ccccc2)n(CC2CCCCC2)n1 [Compound 37, 1-(Cyclohexylmethyl)-3-methyl-5-((3-methyl-1-phenyl-1H-pyrazol-5-yl)methoxy)-1H-pyrazole] | 33 to 45
Cc1cc(OCC2CCCN2Cc2ccccc2)n(-c2ccccc2)n1 (stereo not shown) [Compound 53, 5-((1-Benzylpyrrolidin-2-yl)methoxy)-3-methyl-1-phenyl-1H-pyrazole] | 5 to 15
Cc1cc(OCc2cc(C)nn2-c2ccccc2)n(CC(=O)O)n1 [Compound 48, 2-(3-Methyl-5-((3-methyl-1-phenyl-1H-pyrazol-5-yl)methoxy)-1H-pyrazol-1-yl)acetic acid] | 4 to 10
Cc1cc(COc2cc(C)nn2-c2ccc([N+](=O)[O-])cc2)n(-c2ccccc2)n1 [Compound 28, 3-Methyl-5-({[3-methyl-1-(4-nitrophenyl)-1H-pyrazol-5-yl]oxy}methyl)-1-phenyl-1H-pyrazole] | 2 to 16
Cc1cc(O)n(Cc2cc(C)nn2-c2ccccc2)n1 [Compound 50, 3-methyl-1-((3-methyl-1-phenyl-1H-pyrazol-5-yl)methyl)-1H-pyrazol-5-ol] | 27 to 58
Cc1cc(Oc2c(N)c(C)nn2-c2ccccc2)n(-c2ccccc2)n1 [Compound 24, 3-Methyl-5-(3-methyl-1-phenyl-1H-pyrazol-5-yloxy)-1-phenyl-1H-pyrazol-4-amine] | 2
Cc1cc(CNCc2cc(C)nn2-c2ccccc2)n(-c2ccccc2)n1 [Compound 18, Bis((3-methyl-1-phenyl-1H-pyrazol-5-yl)methyl)amine] | 20
Cc1cc(CCc2cc(C)nn2-c2ccccc2)n(-c2ccccc2)n1 [Compound 14, 1,2-Bis(3-methyl-1-phenyl-1H-pyrazol-5-yl)ethane] | ≤ 16
Cc1cc(Oc2c([N+](=O)[O-])c(C)nn2-c2ccccc2)n(-c2ccccc2)n1 [Compound 23, 3-Methyl-5-(3-methyl-1-phenyl-1H-pyrazol-5-yloxy)-4-nitro-1-phenyl-1H-pyrazole] | 12
Cc1cc(OCCOc2cc(C)nn2-c2ccccc2)n(-c2ccccc2)n1 [Compound 20, 1,2-Bis(3-methyl-1-phenyl-1H-pyrazol-5-yloxy)ethane] | 4 to 14
Cc1cc(COc2cc(C)nn2-c2ccccc2)n(-c2ccccc2)n1 [Compound 15, 3-Methyl-5-((3-methyl-1-phenyl-1H-pyrazol-5-yl)methoxy)-1-phenyl-1H-pyrazole] | ≤ 14
Cc1cc(COc2cc(C)nn2C2CCCC2)n(-c2ccccc2)n1 [Compound 41, 1-Cyclopentyl-3-methyl-5-((3-methyl-1-phenyl-1H-pyrazol-5-yl)methoxy)-1H-pyrazole] | ≤ 17

same assay, conditions: percent inhibition of phagocytosis of anti-D opsonized RBCs by monocytes; compound at 5 micromolar

SMILES | Activity @ 5 micromolar (%)
Cc1cc(OCc2cc(C)nn2-c2ccccc2)[nH]n1 [Compound 49] | 6-26%

test system: preventive mouse model of ITP (anti-platelet antibody, rat anti-mouse CD41); assay: Preventive mouse model of ITP, compound given IP or IV; format: in vivo, Mice (BALB/c); details: i.p. (40 mg/kg) or i.v. (16 mg/kg); anti-CD41 1.4 μg daily from Day 0; FIG. 1
Procedure: Mice (BALB/c) were treated with an anti-platelet antibody (rat anti-mouse CD41 using 1.4 μg constant dose) daily starting at Day 0 to induce ITP. Platelet counts at Day 2, when a nadir is reached in this model, are shown for untreated mice, mice treated with anti-CD41 only, mice treated with IVIG (1 g/kg) (positive control for ITP amelioration), and mice treated with Compound 50 i.p. (40 mg/kg) or i.v. (16 mg/kg). Treatment groups: n=5 mice per group; control: n=3. Statistical significance by one-way ANOVA with Dunnett posthoc test and is indicated: ** p<0.01; *** p<0.001.

SMILES | Amelioration of ITP (platelet counts at Day 2)
Cc1cc(O)n(Cc2cc(C)nn2-c2ccccc2)n1 [Compound 50, 3-methyl-1-((3-methyl-1-phenyl-1H-pyrazol-5-yl)methyl)-1H-pyrazol-5-ol] | ameliorates ITP

test system: preventive mouse model of ITP (anti-platelet antibody, rat anti-mouse CD41); assay: Preventive mouse model of ITP, compound given subcutaneously; format: in vivo, Mice; details: SC twice per day (2 sites, 2 mg/ml) starting at Day 0; anti-CD41 1.4 μg daily; FIG. 2
Procedure: Mice were treated as above with an anti-platelet antibody (rat anti-mouse CD41 using 1.4 μg constant dose) daily starting at Day 0 to induce ITP. Compound 50 was given SC twice per day (2 sites, 2 mg/ml) starting at Day 0. IVIg (1 g/kg) was given on Day 2 for comparison as this is considered the therapeutic dose of IVIg. Treatment groups: n=5 mice per group; control (untreated): n=3. Statistical significance by one-way ANOVA with Dunnett posthoc test and is indicated: ** p<0.01; *** p<0.001.

SMILES | Amelioration of ITP
Cc1cc(O)n(Cc2cc(C)nn2-c2ccccc2)n1 [Compound 50, 3-methyl-1-((3-methyl-1-phenyl-1H-pyrazol-5-yl)methyl)-1H-pyrazol-5-ol] | efficacious for the amelioration of ITP

From patent US11090288B2, “Pyrazole derivatives and their uses thereof” (Canadian Blood Services, priority 2013, dated 2021)
